Assay [1] deals with Escherichia coli ΔlptD4213. Description: microbe, parasite or virus in culture. The format is cell-based. As to conditions: read-out: Broth Microdilution MIC. From the text: Reference strains for this study (S. aureus ATCC 29213, ATCC 29740 [bovine mastitis strain Newbould], S. epidermidis ATCC 12228, E. coli ATCC 35695, E. faecalis ATCC 29212) were obtained from the American Type Culture Collection (ATCC, Rockville, MD). S. aureus strains CMRSA-10 and CMRSA-2 were obtained from the Laboratoire de santé publique du Québec (LSPQ, Sainte-Anne-de-Bellevue, QC, Canada) and are Canadian CA-MRSA USA-300 and HA-MRSA USA-100 clones, respectively. The strain E. coli imp4213 (lptD), used as a control in MIC assays, is a derivative of E. coli ATCC 35695 (E. coli MC4100) with an increased membrane permeability. […] Other MRSA strains used in this study are clinical isolates of human origin obtained from the microbiology laboratory of the Centre Hospitalier Universitaire de Sherbrooke (CHUS, Sherbrooke, QC, Canada). Bovine mastitis strains (S. aureus, S. chromogenes, S. haemolyticus, S. hominis, S. simulans) were obtained from the Canadian Bovine Mastitis and Milk Quality Research Network (CBRQMN, St-Hyacinthe, QC, Canada). Among these strains, S. aureus 2117 is a high producer of biofilm and was used in the biofilm-eradication assay. S. epidermidis isolates were provided by Centre de Recherche en Infectiologie (CRI) de Québec (Québec, QC, Canada).
Background: In broth dilution the organism is exposed to a series of concentrations in liquid medium.

Assay [2] relates to Escherichia coli ATCC 35695. Description: Broth microdilution MIC. The conditions noted are these: ATCC35695, read-out: Broth Microdilution MIC.
The test system of assay [3] is S. aureus bovine strain 2117 embedded in preformed biofilm. Description: Biofilm-eradication test (MBEC assay). The format is cell-based, Staphylococcus aureus. The conditions noted are these: 24 h preformed biofilm. The protocol:
The viability of bacteria in preformed biofilms treated with PC206 was evaluated using the MBEC assay™ system (formerly the Calgary Biofilm Device). The device consists of a plastic lid with 96 pegs and a 96-well plate. […] Plates were incubated at 35 °C for 24 h with agitation (120 rpm). […] The pegs were washed three times with PBS and the biofilm was sonicated for 10 min, and then transferred into a new 96-well base plate. The 96-well plate was centrifuged for 5 min at 180 g to recover the detached bacteria.

For assay [4], the system named is guanine riboswitch-lacZ fusion construct (xpt-lacZ). Description: Riboswitch regulation assay (lacZ-gene reporter). The format is cell-based, B. subtilis. The conditions noted are these: concentration as low as 1 µg/mL. From the text:
The novel pyrimidine compounds, especially PC206, display specificity and potency against some staphylococci but not the other bacterial genus (Table 1 and Table 2). Because they are structurally derived from PC1 and PC2, these novel antibiotic candidates are expected to have the same mode of action. […] To verify this hypothesis, a strain of B. subtilis with a guanine riboswitch-lacZ fusion construct (named xpt-lacZ) integrated in its chromosome was exposed to these new antimicrobials. […] Therefore, it is an adequate reporter species. The metabolization of substrate ONPG into colored ONP was normalized by the bacterial suspension absorbance at 600 nm (Miller units) and relativized to the untreated condition.
β-galactosidase gene expression in the presence of the new pyrimidine analogs was studied, using an xpt-lacZ transcriptional fusion construct integrated in the genome of B. subtilis as previously described. Briefly, cultures were grown for 5 h at 35 °C in CAMHB, from an initial optical density of 0.05 at 600 nm (OD600), and then diluted 1:20 and in the presence of different concentrations of the compounds tested. Cultures were centrifuged for 10 min at 13,100 rpm, the supernatant was discarded, and pellets were suspended in a Z-buffer (NaH2PO4 40 mM, Na2HPO4 60 mM, MgSO4 1 mM, KCl 10 mM). Cultures OD600 were measured, and bacteria were then lysed with lysozyme (1 mg/mL) and β-mercaptoethanol 50 mM for 30 min. Lysates were centrifuged for 10 min at 13,100 rpm, and supernatants were incubated for 5 min at 30 °C with the substrate orthonitrophenyl-β-galactoside (ONPG; Sigma Aldrich). Reactions were stopped with Na2CO3 1M, supernatants OD420 were measured, and Miller units were calculated. A decrease in β-galactosidase activity indicated binding of the test compound to the riboswitch. Guanine and oxacillin were used as […] controls, respectively. The formula to measure Miller units is as follows: Millerunits=1000×OD420/t·v·OD600
Here, t represents the time of incubation with ONPG, and v represents the volume of the reaction.

Converted amounts (≈) assume the structure as drawn.

For the compound `CC(C)(O/N=C(\C(=O)N[C@@H]1C(=O)N2C(C(=O)[O-])=C(C[n+]3ccccc3)CS[C@H]12)c1csc(N)n1)C(=O)O` [CAZ, ceftazidime, reference compound], the values for the MIC in assay [1] and in assay [2] were 0.03 µg/mL (≈ 0.0549 µM) and 0.25 µg/mL (≈ 0.457 µM), respectively. For `CNC(C)C1CCC(N)C(OC2C(N)CC(N)C(OC3OCC(C)(O)C(NC)C3O)C2O)O1` (stereo not shown) [Gentamicin, reference compound], in assay [3], the “Lowest concentration that significantly reduced CFU/peg” value worked out at 2 µg/mL. With `Nc1nc2nc[nH]c2c(=O)[nH]1` [Guanine, reference compound], the “Effect on lacZ expression” value in assay [4] is “strongly inhibited lacZ expression”.

The values are drawn from PMC10451377, “Rationally Designed Pyrimidine Compounds: Promising Novel Antibiotics for the Treatment of Staphylococcus aureus-Associated Bovine Mastitis” (Antibiotics, 2023).
